In patent publication US20200281965A1, “[…] NITRIC OXIDE” (Beyond Air, Inc., priority 2017, published 2020):

Experiments:
[1] = test system: human influenza (influenza A/victoria H3N2) and highly pathogenic avian influenza (H7N2); type: cell-based, influenza virus
[2] = test system: human respiratory syncytial virus (rgRSV30); type: cell-based
[3] = safety monitoring of human subjects undergoing intermittent gNO inhalation; type: in vivo
From the text: In some embodiments, the methods disclosed herein are effected while monitoring various parameters relevant for maintaining the desired dosage and regimen, relevant to the safety of the procedure and relevant for efficacy of the treatment. Exemplary such parameters are those obtainable on-site in real-time, such as methemoglobin level, end-tidal CO2 level, and oxygenation, and parameters which are obtainable off-site in the laboratory, such as blood nitrite level, urine nitrite level, and inflammatory markers' level. […] Embodiments of the present invention therefore relate to methods of administering gaseous nitric oxide to human subjects in need thereof, while these parameters remain substantially unchanged.
As methemoglobin levels can be measured using noninvasive measures, the parameter of percent saturation at the periphery of methemoglobin (SpMet) is used to monitor the stability, safety and effectiveness of the method presented herein.

[4] = human subjects undergoing the disclosed regimen

SMILES: [N]=O [gNO, nitric oxide]
- infectivity of influenza [1]: reduced their infectivity
- infectivity of RSV [2]: reduced their infectivity
- change in inflammatory markers [3, 4]: no substantial change
- change in methemoglobin level [3, 4]: no substantial change
- change in serum nitrite level [3, 4]: no substantial change
- SpMet level (percent saturation at the periphery of methemoglobin) ([3]; human subjects undergoing the method, during and following administration): ≤ 1%
